Measurements reported in patent publication US20060025430A1, “Novel irreversible inhibitors of epidermal growth factor receptor tyrosine kinase and uses thereof for therapy and diagnosis” (priority 2003, published 2006).

Legend:
[1] = Challenge reaction with reduced glutathione (HPLC conversion to conjugates); assay type: physicochemical
Protocol: Standard solutions were prepared by dissolving compound 5, Compound 6 and {4-[(3,4-dichloro-6-fluorophenyl)amino]quinazol ine-6-yl}acrylamide (0.0146 mmol) in 1.75 ml of THF: MeOH (1:2) and glutathione (18 mg, 0.0586 mmol) in 0.5 ml of water. A 300 μL aliquot of the quinazoline standard solution (2.5 μmol) was diluted with 689 μL of THF:MeOH:H2O (1:2:1), after which 11 μL (1.25 μmol) of glutathione solution and 5.22 μL (30 μmol) of N,N′-diisopropylethylamine were added. Conversions of the quinazolines and formation of conjugates at different time points were measured by HPLC using RP (3.9×300 mm) column (mobile phase of acetonirile and acetate buffer 0.1 M (2:3) at a flow rate of 1 ml/min was used herein). The glutathione conjugates were further detected by MS.
As discussed hereinabove, EGFR blockade by irreversible inhibitors is due to the nucleophilic attack of the sulfhydryl group of Cys-773 at the receptor's ATP binding pocket on the reactive chemical group of the EGFR targeted inhibitor. In order to evaluate the chemical reactivity of the novel irreversibly EGFR inhibitors decribed herein, the degree of reactivity of the inhibitors towards the sulfhydryl group of reduced glutathione (GSH) as a nucleophile was tested. Thus, Compound 5, Compound 6 and {4-[(3,4-dichloro-6-fluorophenyl)amino]quinazoline-6-yl}acrylamide were dissolved in THF: MeOH: H2O (1:2:1), and were reacted at room temperature with half an equivalent of reduced glutathione in the presence of 12 equivalents of N,N-diisopropylethylamine. Identical aliquots of the reaction mixtures were taken at various time points and injected into reversed-phase HPLC in order to determine the conversion-rate of the various compounds into glutathione-conjugates. The characteristics of the products were determined using MS.
A study of the reaction rate as a function of the temperature was also performed. Thus, the reaction ws performed at various temperatures ranging from 0° C. and 60° C. The following activation parameters were generated: For {4-[(3,4-dichloro-6-fluorophenyl)amino]quinazoline-6-yl}acrylamide: Ea=5.24 kCalmol^−1, ΔH^#25° C.=4.64 kCalmol^−1 and ΔS^#25° C.=−61.24 Calmol^−1K^−1. For compound 5: Ea=11.4 kCalmol^−1, ΔH^#25° C.=10.80 kCalmol^−1 and ΔS^#25° C.=−41.29 Calmol^−1K^−1.
The reaction rate was calculated using the following rate equation: [formula] kobs=Ae^−Ea/RT

PDGFR = PDGFR (Homo sapiens, UniProt P09619); experiment: Selective-inhibition assay in […] cells (receptor phosphotyrosine, Western blot); assay type: cell-based; details: […] cells expressing PDGFR, 1 hour incubation, PDGFββ stimulation
PDGFR, sequence (P09619 whole entry): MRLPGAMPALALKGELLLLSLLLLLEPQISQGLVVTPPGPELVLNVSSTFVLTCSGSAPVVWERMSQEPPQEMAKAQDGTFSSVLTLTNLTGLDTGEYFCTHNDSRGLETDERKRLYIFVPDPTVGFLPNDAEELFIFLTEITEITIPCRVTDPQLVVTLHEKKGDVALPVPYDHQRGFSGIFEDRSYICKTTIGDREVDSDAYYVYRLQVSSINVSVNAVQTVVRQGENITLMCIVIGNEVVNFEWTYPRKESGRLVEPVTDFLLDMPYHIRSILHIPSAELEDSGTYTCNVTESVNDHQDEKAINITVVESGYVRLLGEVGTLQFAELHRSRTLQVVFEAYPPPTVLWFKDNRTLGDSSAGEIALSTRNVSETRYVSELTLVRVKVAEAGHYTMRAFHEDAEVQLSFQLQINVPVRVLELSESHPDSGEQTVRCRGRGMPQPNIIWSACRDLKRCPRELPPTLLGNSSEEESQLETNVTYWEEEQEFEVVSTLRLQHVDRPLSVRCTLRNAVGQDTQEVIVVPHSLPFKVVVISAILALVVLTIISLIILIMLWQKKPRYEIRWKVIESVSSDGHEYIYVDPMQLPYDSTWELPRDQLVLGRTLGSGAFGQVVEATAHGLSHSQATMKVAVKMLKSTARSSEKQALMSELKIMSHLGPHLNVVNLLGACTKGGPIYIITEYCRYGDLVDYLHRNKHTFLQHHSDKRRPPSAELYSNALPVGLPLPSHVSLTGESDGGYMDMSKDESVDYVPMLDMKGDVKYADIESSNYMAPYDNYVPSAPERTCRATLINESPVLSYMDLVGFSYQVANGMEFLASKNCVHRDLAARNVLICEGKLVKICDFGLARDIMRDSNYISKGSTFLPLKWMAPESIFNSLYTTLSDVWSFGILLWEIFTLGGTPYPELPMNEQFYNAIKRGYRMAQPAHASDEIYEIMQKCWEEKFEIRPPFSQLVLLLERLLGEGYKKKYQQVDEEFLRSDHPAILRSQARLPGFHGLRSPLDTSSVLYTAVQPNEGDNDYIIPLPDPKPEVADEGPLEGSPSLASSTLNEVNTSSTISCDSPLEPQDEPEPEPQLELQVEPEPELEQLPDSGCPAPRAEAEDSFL
Protocol: NIH3T3 cells transformed with either the EGFR (DHER14 cells), with the HER1-HER2 chimera (CSH12 cells) or with the PDGFR (NIH/PDGFR cells), decribed by Lee et al.; 1989, Honegger et al., 1988; and Shawver et al. 1997, and A431 human epidermoid vulval carcinoma cells were grown in Dulbecco's modified Eagle's medium (DMEM) (Biological industries, Kibbuts Beit Haemek, Israel) supplemented with 10% fetal calf serum and antibiotics (penicillin […], streptomycin 100 mg/liter) at 37° C. in 5% CO2.
Selective-inhibition assay: CSH12, DHER14 and […] cells, expressing either the HER1-HER2 chimera, EGFR or PDGFR, respectively, were used for the determination of inhibitory selectivity. Cells (7.5×10^4) were grown in 6-well plates (35 mm diameter, Nalge Nunc) for 24 hours and then incubated in 0.25% FCS-containing medium for an additional 24 hours to about 90% confluence. Duplicate sets of cells were treated with the tested compounds at varying concentrations for 1 hour. The final concentration of the vehicle in the medium was 0.05% DMSO, 0.1% EtOH. After removal of the inhibitor from the medium, PBS wash (×2) and addition of 0.25% serum-containing medium to the wells, the cells were stimulated with either 20 ng/mL human EGF for 5 minutes (CSH12 and DHER14 cells) or 50 ng/ml human PDGFββ for 10 minutes ([…] cells) at 37° C. […]

ΔH^# 25° C. of reaction with reduced glutathione ([1]; 25° C.): 10.80 kCalmol^−1
ΔS^# 25° C. of reaction with reduced glutathione ([1]; 25° C.): −41.29 Calmol^−1K^−1
activation energy Ea of reaction with reduced glutathione ([1]; temperatures from 0° C. to 60° C.): 11.4 kCalmol^−1
IC50 (PDGFR): > 1000 nM
melting point: > 300 °C
SMILES: O=C(CCl)Nc1ccc2ncnc(Nc3cc(Cl)c(Cl)cc3F)c2c1 [Compound 5, N-{4-[(4,5-Dichloro-2-fluoro-phenyl)amino]-quinazolin-6-yl}-2-chloroacetamide]
